In PubChem BioAssay AID1918936 (Molecular Pharmacology Branch, DTP, NCI, 2023):
pIC50: −log10 of the molar value. Where “and” joins values, the source holds several entries; their conditions need not be identical. Equal values may be shown once.

System: 349418-098-R-PDC complex spheroid viability
Assay: Anticancer human tumor 349418-098-R-PDC patient-derived lung adenocarcinoma cell line growth inhibition
Settings: for viability, T/C: stronger effect = lower value
Text: Multicellular complex tumor spheroid response to LSD1 Inhibitor Iadademstat in combination with a variety of drugs and investigational agents in selected tumor cell lines
The current study was undertaken to assess response to LSD1 inhibitors in combination with standard-of-care drugs and investigational agents in solid tumor complex spheroid models as well as in the K-562 leukemia. Complex spheroids include a stromal component modeled by human endothelial cells (HUVEC) and fibroblasts modeled by human mesenchymal stem cells (MSCs). The concentration ranges selected for each drug and investigational agent were based upon clinically achievable concentrations if the clinical Cmax of the agent was known.
Compounds. The drugs and investigational agents used in this study are listed on Table 1. All of the agents used, including staurosporine (NSC755774) and gemcitabine (NSC613327), were obtained from the Developmental Therapeutics Program, NCI. FDA-approved anticancer drugs are available from the NCI at http://dtp.nci.nih.gov/branches/dscb/oncology_drugset_explanation.html. Drugs and investigational agents were >95% pure by proton nuclear magnetic resonance (NMR) and liquid chromatography/mass spectrometry (LC/MS). Stock solutions were prepared at 400x in DMSO, stored at -70 degrees C, and diluted in fresh medium prior to their use. The final concentration of DMSO in cell culture wells never exceeded 0.25% (v/v). The FDA-approved anticancer drug set is available from the Developmental Therapeutics Program at https://dtp.cancer.gov/organization/dscb/obtaining/available_plates.htm. All drugs and investigational agents were tested over a range starting from a high concentration at or near the clinical Cmax and decreasing in half-log increments. If the clinical Cmax for an agent had not been determined, the highest concentration tested was 10 microM.
Cell Lines. The patient-derived cancer cell (PDC) lines: 292921-168-R-J2-PDC, K24384-001-R-PDC, and 521955-158-R2-J5-PDC pancreatic carcinomas, 556581-035-R-J1 ovarian carcinoma, 324938-238-R-J1-PDC, 855422-203-R-J1-PDC and 883617-216-R-J1-PDC urothelial bladder carcinomas, 743489-274-T-PDC renal cell carcinoma, 138582-R-J1 Merkel cell tumor, K60290-347-R-J1 and K57222-313-R-J1-PDC glioblastomas, 653999-131-R-J2-PDC, LG0703-F948-PDC, and 349418-098-R-PDC non-small cell lung carcinomas, 885512-296-R-J2-PDC, 171881-019-R-J1-PDC breast carcinomas and 186277-243-T-J2-PDC and 233499-124-R-J2-PDC colon carcinomas were obtained from the NCI Patient-Derived Models Repository (PDMR, https://pdmr.cancer.gov). The established cell lines NCI/ADR-RES (RRID:CVCL_14520 and OVCAR-5 (RRID:CVCL_1628) ovarian carcinomas, 786-O (RRID:CVCL_1051) and A498 (RRID:CVCL_A498) renal cell carcinoma, NCI-H211 (ATCC, cat. CRL-5824; RRID:CVCL_1529), NCI-H196 (ATCC, cat. CRL-5823, RRID:CVCL_1509), SW 1271 (ATCC, cat. CRL-2177, RRID:CVCL_1716) and NCI-H1876 (ATCC, cat. CRL-5902, RRID:CVCL_1503) small cell lung carcinomas, MDA-MB-231 (RRID:CVCL_0062) and MDA-MB-468 (RRID:CVCL_0419)breast carcinomas (10-12). Pooled donor human umbilical vein endothelial cells (HUVEC, Lonza, cat. CC-2519) and human mesenchymal stem cells (hMSC, Lonza, cat. PT-2501) were purchased from Lonza (Walkersville, MD).
Cell Culture. All cells were maintained in an incubator at 37 degrees C and 5% CO2 with 95% humidity. The PDC lines were cultured according to standard operating procedures established by the NCI PDMR (https://pdmr.cancer.gov). Briefly all PDCs were thawed and cultured in Matrigel-coated flasks prepared with a working solution of 1X Ham's F-12 nutrient mix, without supplementation (Invitrogen, Waltham, MA, cat. 11765054), 100 U/mL penicillin-streptomycin (Invitrogen, cat. 15140122), and 2.5% Matrigel (Corning Inc., Corning, NY, cat. 354248) for the first three passages. […]

[1] = curve of first compound, second compound 0.1 µM
[2] = curve of first compound, second compound 0.316 µM
[3] = curve of first compound, second compound 1 µM
[4] = curve of first compound, second compound 3.16 µM
[5] = curve of first compound, second compound 10 µM
[6] = second compound 0.1 µM, first compound 0.00316 µM
[7] = second compound 0.1 µM, first compound 0.01 µM
[8] = second compound 0.1 µM, first compound 0.0316 µM
[9] = second compound 0.1 µM, first compound 0.1 µM
[10] = second compound 0.1 µM, first compound 0.316 µM
[11] = second compound 0.1 µM, first compound 1 µM
[12] = second compound 0.316 µM, first compound 0.00316 µM
[13] = second compound 0.316 µM, first compound 0.01 µM
[14] = second compound 0.316 µM, first compound 0.0316 µM
[15] = second compound 0.316 µM, first compound 0.1 µM
[16] = second compound 0.316 µM, first compound 0.316 µM
[17] = second compound 0.316 µM, first compound 1 µM
[18] = second compound 1 µM, first compound 0.00316 µM
[19] = second compound 1 µM, first compound 0.01 µM
[20] = second compound 1 µM, first compound 0.0316 µM
[21] = second compound 1 µM, first compound 0.1 µM
[22] = second compound 1 µM, first compound 0.316 µM
[23] = second compound 1 µM, first compound 1 µM
[24] = second compound 3.16 µM, first compound 0.00316 µM
[25] = second compound 3.16 µM, first compound 0.01 µM
[26] = second compound 3.16 µM, first compound 0.0316 µM
[27] = second compound 3.16 µM, first compound 0.1 µM
[28] = second compound 3.16 µM, first compound 0.316 µM
[29] = second compound 3.16 µM, first compound 1 µM
[30] = second compound 10 µM, first compound 0.00316 µM
[31] = second compound 10 µM, first compound 0.01 µM
[32] = second compound 10 µM, first compound 0.0316 µM
[33] = second compound 10 µM, first compound 0.1 µM
[34] = second compound 10 µM, first compound 0.316 µM
[35] = second compound 10 µM, first compound 1 µM
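Note: spheroids exposed to agents for seven days before readout.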
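Throughout, for viability, T/C: 100% = DMSO vehicle control wells.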

Compound `COc1cc(Nc2ncc3c(n2)-c2ccc(Cl)cc2C(c2c(F)cccc2OC)=NC3)ccc1C(=O)O` + NC1CCC(NC2CC2c2ccccc2)CC1 has a pIC50 [1] of 7.67, a pIC50 [2] of 7.74 and a pIC50 [3] of 7.55. It also gave a pIC50 [4] of 7.80, a pIC50 [5] of 7.67 and a viability, T/C [6] of 99.2%. For the same compound, the viability, T/C [7] was 64.7%, the viability, T/C [8] was 41.8% and the viability, T/C [9] was 38.5%. For the same compound, the viability, T/C [10] was 32.1%, the viability, T/C [11] was 37.4% and the viability, T/C [12] was 87.3%. It also gave a viability, T/C [13] of 63.1%, a viability, T/C [14] of 37.7% and a viability, T/C [15] of 38.9%. The viability, T/C [16] was 39.7%, the viability, T/C [17] was 32.5% and the viability, T/C [18] was 85%. For the same compound, the viability, T/C [19] was 62.8%, the viability, T/C [20] was 43.6% and the viability, T/C [21] was 47.3%. For the same compound, the viability, T/C [22] was 40.9%, the viability, T/C [23] was 34.5% and the viability, T/C [24] was 99.5%. For the same compound, the viability, T/C [25] was 58.9%, the viability, T/C [26] was 35.6% and the viability, T/C [27] was 40.4%. The viability, T/C [28] was 31.9%, the viability, T/C [29] was 37.7% and the viability, T/C [30] was 75.3%. For the same compound, the viability, T/C [31] was 54.2%, the viability, T/C [32] was 48.2% and the viability, T/C [33] was 41.6%. The viability, T/C [34] was 34% and the viability, T/C [35] was 34.7%.

`Nc1ncn(C2CC(O)C(CO)O2)c(=O)n1` (centres undefined) + NC1CCC(NC2CC2c2ccccc2)CC1 showed a pIC50 [1] of 7.61, a pIC50 [2] of 7.33 and a pIC50 [3] of 7.56. It also gave a pIC50 [4] of 7.71, a pIC50 [5] of 7.95 and a viability, T/C [6] of 78%. It also gave a viability, T/C [7] of 75.6%, a viability, T/C [8] of 43% and a viability, T/C [9] of 28.6%. The viability, T/C [10] was 26.1%, the viability, T/C [11] was 24.2% and the viability, T/C [12] was 72.8%. The viability, T/C [13] was 75.7%, the viability, T/C [14] was 55.2% and the viability, T/C [15] was 36.7%. The viability, T/C [16] was 25%, the viability, T/C [17] was 22.7% and the viability, T/C [18] was 89.5%. For the same compound, the viability, T/C [19] was 73.5%, the viability, T/C [20] was 46% and the viability, T/C [21] was 31.4%. The viability, T/C [22] was 27.8%, the viability, T/C [23] was 23.3% and the viability, T/C [24] was 83.2%. The viability, T/C [25] was 56.7%, the viability, T/C [26] was 45.3% and the viability, T/C [27] was 34%. It also gave a viability, T/C [28] of 23.7%, a viability, T/C [29] of 21.9% and a viability, T/C [30] of 80.9%. For the same compound, the viability, T/C [31] was 50.5%, the viability, T/C [32] was 36% and the viability, T/C [33] was 27.5%. It also gave a viability, T/C [34] of 23.3% and a viability, T/C [35] of 20.4%.

`Nc1ncn(C2CC(O)C(CO)S2)c(=O)n1` (centres undefined) + NC1CCC(NC2CC2c2ccccc2)CC1 was tested, and the pIC50 [1] was 7.73, the pIC50 [2] was 7.72 and the pIC50 [3] was 7.69. It also gave a pIC50 [4] of 7.72, a pIC50 [5] of 7.91 and a viability, T/C (second compound 0.1 µM, first compound 0.000949 µM) of 107%. It also gave a viability, T/C (second compound 0.1 µM, first compound 0.003 µM) of 85.5%, a viability, T/C (second compound 0.1 µM, first compound 0.00949 µM) of 71.7% and a viability, T/C (second compound 0.1 µM, first compound 0.03 µM) of 34.7%. For the same compound, the viability, T/C (second compound 0.1 µM, first compound 0.0949 µM) was 19.6%, the viability, T/C (second compound 0.1 µM, first compound 0.3 µM) was 8.78% and the viability, T/C (second compound 0.316 µM, first compound 0.000949 µM) was 104%. It also gave a viability, T/C (second compound 0.316 µM, first compound 0.003 µM) of 100%, a viability, T/C (second compound 0.316 µM, first compound 0.00949 µM) of 71.6% and a viability, T/C (second compound 0.316 µM, first compound 0.03 µM) of 35.9%. The viability, T/C (second compound 0.316 µM, first compound 0.0949 µM) was 16.1%, the viability, T/C (second compound 0.316 µM, first compound 0.3 µM) was 9.32% and the viability, T/C (second compound 1 µM, first compound 0.000949 µM) was 117%. It also gave a viability, T/C (second compound 1 µM, first compound 0.003 µM) of 96.2%, a viability, T/C (second compound 1 µM, first compound 0.00949 µM) of 74.3% and a viability, T/C (second compound 1 µM, first compound 0.03 µM) of 38.1%. For the same compound, the viability, T/C (second compound 1 µM, first compound 0.0949 µM) was 16.1%, the viability, T/C (second compound 1 µM, first compound 0.3 µM) was 8.39% and the viability, T/C (second compound 3.16 µM, first compound 0.000949 µM) was 97.5%. It also gave a viability, T/C (second compound 3.16 µM, first compound 0.003 µM) of 89.8%, a viability, T/C (second compound 3.16 µM, first compound 0.00949 µM) of 73.4% and a viability, T/C (second compound 3.16 µM, first compound 0.03 µM) of 34.8%. For the same compound, the viability, T/C (second compound 3.16 µM, first compound 0.0949 µM) was 15.6%, the viability, T/C (second compound 3.16 µM, first compound 0.3 µM) was 7.02% and the viability, T/C (second compound 10 µM, first compound 0.000949 µM) was 75.8%. It also gave a viability, T/C (second compound 10 µM, first compound 0.003 µM) of 86%, a viability, T/C (second compound 10 µM, first compound 0.00949 µM) of 51.1% and a viability, T/C (second compound 10 µM, first compound 0.03 µM) of 30.3%. For the same compound, the viability, T/C (second compound 10 µM, first compound 0.0949 µM) was 16% and the viability, T/C (second compound 10 µM, first compound 0.3 µM) was 7.62%.

In the case of `CCc1c2c(nc3ccc(O)cc13)-c1cc3c(c(=O)n1C2)COC(=O)[C@]3(O)CC`, the viability, T/C (compound 0.000949 µM) was 4.32% and 3.69%, the viability, T/C (compound 0.003 µM) was 2.63% and 2.24% and the viability, T/C (compound 0.00949 µM) was 1.82% and 1.28%. The viability, T/C (compound 0.03 µM) was 1.29% and 1.41%, the viability, T/C (compound 0.0949 µM) was 1.48% and 2.01% and the viability, T/C (compound 0.3 µM) was 1.75% and 2.19%. For the same compound, the pIC50 (curve of compound) was > 9.02.

In the case of `CC1COCCN1c1cc(-c2ccnn2C)c2ccnc(-c3ccn[nH]3)c2n1` (centres undefined), the viability, T/C (compound 0.00316 µM) was 104% and 25.4%, the viability, T/C (compound 0.01 µM) was 61.4% and 14.9% and the viability, T/C (compound 0.0316 µM) was 14.5% and 8.01%. For the same compound, the viability, T/C (compound 0.1 µM) was 8.8% and 6.27%, the viability, T/C (compound 0.316 µM) was 7.72% and 5.55% and the viability, T/C (compound 1 µM) was 5.78% and 4.24%. The pIC50 (curve of compound) was 7.88 and > 8.50.
